From paper PMC5309245, “Discovery and Characterization of Diazenylaryl Sulfonic Acids as Inhibitors of Viral and Bacterial Neuraminidases” (Frontiers in Microbiology, 2017)

Tests used:
[1] = tested on: influenza A virus 8178/09; experiment: microbe, parasite or virus in culture; assay type: cell-based, influenza A virus A/Jena/8178/2009 (H1N1)
influenza A virus HK/68 = experiment: microbe, parasite or virus in culture; assay type: cell-based, influenza A virus A/Hong Kong/68 (H3N2)
S. pneumoniae DSM20566 = experiment: Microtiter broth microdilution assay, planktonic growth; assay type: cell-based, Streptococcus pneumoniae DSM20566; details: 18 h, maximum 50 μM
[2] = molecular target: T1, S. pneumoniae DSM20566 NA (NanA) (Streptococcus pneumoniae, UniProt P62575); experiment: FL NA inhibition assay, S. pneumoniae DSM20566; assay type: biochemical; details: MUNANA substrate; for IC50: read-out: NA inhibition using FL assay IC50, S. p. DSM20566
T1 construct: host or cells: either rNanA from E. coli BL21(DE3) or total precipitated protein of S. pneumoniae DSM20566
T1 sequence (P62575 54-1035): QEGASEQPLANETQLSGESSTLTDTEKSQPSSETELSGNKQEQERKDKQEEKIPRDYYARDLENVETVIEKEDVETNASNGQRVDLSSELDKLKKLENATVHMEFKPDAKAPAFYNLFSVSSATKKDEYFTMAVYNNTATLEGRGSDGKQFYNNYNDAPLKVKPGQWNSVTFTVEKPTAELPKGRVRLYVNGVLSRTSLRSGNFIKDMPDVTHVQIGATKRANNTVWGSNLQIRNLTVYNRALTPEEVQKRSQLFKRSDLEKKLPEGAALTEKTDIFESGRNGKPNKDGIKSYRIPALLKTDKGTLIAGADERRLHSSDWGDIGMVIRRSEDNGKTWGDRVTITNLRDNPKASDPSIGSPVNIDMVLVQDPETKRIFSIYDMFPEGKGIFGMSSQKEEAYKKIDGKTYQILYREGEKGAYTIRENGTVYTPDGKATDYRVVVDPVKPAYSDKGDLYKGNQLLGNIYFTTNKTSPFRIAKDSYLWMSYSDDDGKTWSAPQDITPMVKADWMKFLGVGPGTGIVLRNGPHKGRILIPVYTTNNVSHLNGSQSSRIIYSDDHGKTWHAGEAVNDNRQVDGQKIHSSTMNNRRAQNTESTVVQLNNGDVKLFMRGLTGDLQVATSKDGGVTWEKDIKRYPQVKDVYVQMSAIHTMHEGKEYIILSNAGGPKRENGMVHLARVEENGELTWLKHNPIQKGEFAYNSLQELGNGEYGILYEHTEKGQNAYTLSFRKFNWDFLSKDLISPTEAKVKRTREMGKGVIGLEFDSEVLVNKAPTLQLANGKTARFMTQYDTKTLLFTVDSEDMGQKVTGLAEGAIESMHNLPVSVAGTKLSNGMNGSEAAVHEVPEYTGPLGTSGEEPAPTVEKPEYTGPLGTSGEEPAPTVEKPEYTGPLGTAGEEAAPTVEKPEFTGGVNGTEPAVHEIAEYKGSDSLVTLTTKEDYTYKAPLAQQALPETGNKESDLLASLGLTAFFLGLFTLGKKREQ

human erythrocytes [3] = assay type: cell-based; details: human erythrocytes, 2 h at 4°C
Experimental: (§1) Viral (whole virus) and bacterial NA activity as well as their inhibition were measured by using a fluorescence (FL) assay with the substrate 2′-(4-methylumbelliferyl)-α-D-N-acetylneuraminic acid sodium salt hydrate (MUNANA, 100 μM; Sigma-Aldrich GmbH, Taufkirchen, Germany), and/or a hemagglutination (HA)-based NA inhibition assay (HA assay) with human erythrocytes (Institute of Transfusion Medicine, University Hospital Jena, Jena, Germany), both assays as published recently (Richter et al., [2015]). Recombinant NanA (rNanA) and total precipitated bacterial protein of S. pneumoniae DSM20566 were used in FL and HA assays. Interference of the compounds with the FL signal (self-fluorescence and quenching) was excluded as described previously (Richter et al., [2015]). […] Each compound was tested at least three times in both NA inhibition assays.
Supplementary Table 1. Assay interference phenomena of test compounds in the HA-based […]
sample concentrations [µM] in viral HA-assay bacterial HA-assay […]
hem- prevention of erythrocyte hem- erythrocyte agglutinationa virus-induced lysisc agglutinationd lysise […]
cTest compounds lysed the human erythrocytes (2 h at 4°C). […]

[4] = tested on: S. pneumoniae DSM20566 biofilm; experiment: Biofilm inhibition assay; assay type: cell-based, Streptococcus pneumoniae DSM20566
human erythrocytes [5] = assay type: cell-based; details: human erythrocytes, 4 h at 37°C and 12 h at 4°C
Experimental: as §1
Supplementary Table 1. […]
eTest compounds lysed the human erythrocytes (4 h at 37°C and 12 h at 4°C).

IAV 5258/09 NA = experiment: Hemagglutination (HA)-based NA inhibition assay, IAV 5258/09; assay type: cell-based, influenza A virus A/Jena/5258/2009 (H1N1); details: human erythrocytes
in vitro = details: dog
influenza A virus WSN/33 = experiment: microbe, parasite or virus in culture; assay type: cell-based, influenza A virus A/WSN/1933 (H1N1)
[6] = molecular target: IAV HK/68 NA (whole virus) (Influenza A virus, UniProt Q91MA2); experiment: biochemical; parameters: species or system influenza A virus A/Hong Kong/68 (H3N2); details: for IC50: NA inhibition using FL assay IC50, IAV HK/68
Chain of IAV HK/68 NA (whole virus) (Q91MA2 whole entry, looked up): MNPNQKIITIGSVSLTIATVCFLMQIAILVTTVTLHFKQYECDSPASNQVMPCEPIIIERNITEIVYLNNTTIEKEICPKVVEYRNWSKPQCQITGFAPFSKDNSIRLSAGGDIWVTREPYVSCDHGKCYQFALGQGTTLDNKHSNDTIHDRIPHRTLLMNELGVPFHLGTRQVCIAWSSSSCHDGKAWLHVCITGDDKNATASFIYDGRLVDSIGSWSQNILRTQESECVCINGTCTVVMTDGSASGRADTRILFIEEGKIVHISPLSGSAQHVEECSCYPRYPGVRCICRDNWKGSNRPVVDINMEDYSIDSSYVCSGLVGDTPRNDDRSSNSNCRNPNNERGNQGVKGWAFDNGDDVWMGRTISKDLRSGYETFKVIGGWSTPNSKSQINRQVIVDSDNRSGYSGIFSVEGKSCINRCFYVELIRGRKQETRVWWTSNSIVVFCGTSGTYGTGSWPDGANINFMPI

[7] = molecular target: T2, S. pneumoniae DSM20566 NA (Streptococcus pneumoniae, UniProt P62575); experiment: HA-based NA inhibition assay, S. pneumoniae DSM20566; assay type: cell-based; details: human erythrocytes
T2 construct: host or cells: either rNanA from E. coli BL21(DE3) or total precipitated protein of S. pneumoniae DSM20566
T2 sequence (P62575 54-1035): as the sequence (P62575 54-1035) above

[8] = molecular target: IAV WSN/33 NA-wt (whole virus) (Influenza A virus, UniProt P03470); experiment: biochemical; parameters: species or system influenza A virus A/WSN/1933 (H1N1); details: for IC50: NA inhibition using FL assay IC50, IAV WSN/33
Chain of IAV WSN/33 NA-wt (whole virus) (P03470 whole entry, looked up): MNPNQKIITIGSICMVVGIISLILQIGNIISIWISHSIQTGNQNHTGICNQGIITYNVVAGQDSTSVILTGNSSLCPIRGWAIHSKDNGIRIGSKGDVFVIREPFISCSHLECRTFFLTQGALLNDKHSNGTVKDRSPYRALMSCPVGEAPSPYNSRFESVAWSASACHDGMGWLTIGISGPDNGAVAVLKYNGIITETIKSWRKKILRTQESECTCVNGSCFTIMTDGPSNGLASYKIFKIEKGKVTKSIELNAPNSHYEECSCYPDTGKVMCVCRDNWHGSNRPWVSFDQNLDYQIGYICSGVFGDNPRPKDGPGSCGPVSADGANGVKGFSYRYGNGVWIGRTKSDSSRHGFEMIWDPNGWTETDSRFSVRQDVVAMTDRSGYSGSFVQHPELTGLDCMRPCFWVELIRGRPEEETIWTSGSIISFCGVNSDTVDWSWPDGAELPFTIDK

Structure (SMILES) | 50% inhibitory concentration, influenza A virus 8178/09 [1] | 50% inhibitory concentration, influenza A virus HK/68 (influenza A virus HK/68) | 50% inhibitory concentration, S. pneumoniae DSM20566 planktonic growth (S. pneumoniae DSM20566) | IC50 [2] [µM] | sample concentrations provoking erythrocyte lysis, viral HA-assay (human erythrocytes [3]) | IC50 ([4]; Streptococcus pneumoniae, DSM20566, 24 h, maximum 50 μM, read-out: 50% inhibitory concentration, S. pneumoniae DSM20566 biofilm formation) [µM] | sample concentrations provoking erythrocyte lysis, bacterial HA-assay (human erythrocytes [5]) | NA inhibition using HA assay MIC, IAV 5258/09 (IAV 5258/09 NA) | CC50 (in vitro) [µM] | 50% inhibitory concentration, influenza A virus WSN/33 (influenza A virus WSN/33) | IC50 [6] [µM] | NA inhibition using HA assay MIC, S. p. DSM20566 [7] | IC50 [8] [µM] | 50% inhibitory concentration, S. pneumoniae DSM20566 biofilm formation ([4]; 24 h, maximum 50 μM) | NA inhibition using FL assay IC50, IAV HK/68 [6] | NA inhibition using FL assay IC50, IAV WSN/33 [8] | NA inhibition using FL assay IC50, S. p. DSM20566 [2] | IC50 (S. pneumoniae DSM20566; Streptococcus pneumoniae, DSM20566, read-out: 50% inhibitory concentration, S. pneumoniae DSM20566 planktonic growth) [µM] | inhibition at 50 µM ([4]; Streptococcus pneumoniae, DSM20566, 50 μM, read-out: Inhibition of biofilm formation at the maximum tested concentration) [%]
Cc1ccccc1/N=N/c1ccc(/N=N/c2c(O)ccc3cc(S(=O)(=O)O)cc(S(=O)(=O)O)c23)c(C)c1 [Compound 5] | Not active | Not active | Not active | 0.97 ± 0.3 | no | 42.2 ± 2.57 | no | 10.00 ± 0.00 µM | > 100 | Not active | 17.8 ± 3.25 | 2.44 ± 1.25 µM |  |  |  |  |  |  | 
COc1cc(/N=N/c2ccc(S(=O)(=O)O)cc2)ccc1/N=N/c1c(O)ccc2cc(S(=O)(=O)O)ccc12 [Compound 8] | Not active | Not active | Not active | 3.9 ± 0.51 | no |  | no | Not active | > 100 | Not active |  | Not active | 6.51 ± 0.72 | Not active | Not active |  |  |  | 
O=S(=O)(O)c1ccc(/N=N/c2ccc(/N=N/c3c(O)c(S(=O)(=O)O)cc4cc(S(=O)(=O)O)ccc34)cc2)cc1 [Compound 9] | Not active | Not active | Not active | 32 ± 10.9 | no |  | no | Not active | > 100 | Not active |  | Not active | 22.7 ± 2.91 | Not active | Not active |  |  |  | 
O=S(=O)(O)c1ccc2c(/N=N/c3ccccc3)c(O)ccc2c1 [Compound 10] | Not active | Not active | Not active | 10.2 ± 1.35 | no |  | no | Not active^c | > 100 | Not active |  | Not active^c |  | Not active | Not active | Not active |  |  | 
O=[N+]([O-])c1ccc(/N=N/c2c(O)ccc3cc(S(=O)(=O)O)ccc23)cc1 [Compound 11] | Not active | Not active | Not active | 23.2 ± 13.1 | no |  | no | Not active | > 100 | Not active | 77.3 ± 10.6 | Not active | 33.1 ± 4.6 | Not active |  |  |  |  | 
O=[N+]([O-])c1ccc(/N=N/c2c(O)c(S(=O)(=O)O)cc3cc(S(=O)(=O)O)ccc23)cc1 [Compound 12] | Not active | Not active | Not active |  | no |  | no | Not active | > 100 | Not active |  | Not active |  | Not active | Not active | Not active | Not active |  | 
O=[N+]([O-])c1cccc(/N=N/c2c(O)c(S(=O)(=O)O)cc3cc(S(=O)(=O)O)ccc23)c1 [Compound 13] | Not active | Not active | Not active |  | no |  | no | Not active | > 100 | Not active |  | Not active |  | Not active | Not active | Not active | Not active |  | 
O=S(=O)(O)c1ccc2c(/N=N/c3c(O)ccc4ccccc34)cccc2c1 [Compound 14] | Not active | Not active | Not active | 5.74 ± 1.41 | no |  | no | Not active^c | > 100 | Not active | 83 ± 6.25 | Not active^c | 28.9 ± 6.9 | Not active |  |  |  |  | 
O=S(=O)(O)c1cc(/N=N/c2c(O)ccc3ccccc23)c2c(S(=O)(=O)O)cccc2c1 [Compound 15] | Not active | Not active | Not active | 46.8 ± 5.27 | no |  | no | Not active^c | > 100 | Not active |  | Not active^c | 28.7 ± 3.3 | Not active | Not active |  |  |  | 
O=S(=O)(O)c1cc(S(=O)(=O)O)c2c(/N=N/c3cccc4ccccc34)c(O)ccc2c1 [Compound 16] | Not active | Not active |  | 7.68 ± 0.98 | no |  | no | 31.60 ± 0.00 µM | > 100 | Not active |  | 24.40 ± 12.47 µM | 44.3 ± 2.38 |  | Not active |  |  | 12 ± 6.81 | 46
